Values of other authors in US6184365A, “Anthracycline derivatives having 4-amino-2,4,6-trideoxy-2 fluoro-α-L-talopyranosyl group” (priority 1996, dated 2001).

Legend:
[1] = earlier derivatives; cited from earlier work
[2] = earlier derivatives; comparison with daunomycin or adriamycin; cited from earlier work

SMILES	solubility in water [1]	antitumor activity [2]
COc1cccc2c1C(=O)c1c(O)c3c(c(O)c1C2=O)C[C@@](O)(C(=O)CO)C[C@@H]3O[C@@H]1O[C@@H](C)[C@@H](O)[C@@H](O)[C@H]1F [7-O-(2,6-Dideoxy-2-fluoro-α-L-talopyranosyl)adriamycinone]	barely soluble in water	remarkable antitumor activity
COc1cccc2c1C(=O)c1c(O)c3c(c(O)c1C2=O)C[C@@](O)(C(=O)CO)C[C@@H]3O[C@@H]1O[C@@H](C)[C@@H](O)[C@@H](N)[C@H]1F [7-O-(3-amino-2,3,6-trideoxy-2-fluoro-α-L-talopyranosyl)adriamycinone]	soluble in water	antitumor activity a little higher than that of the latter
